Experimental data: patent publication US20090172831A1, “Methods for the production of plants resistant to HPPD herbicides” (Syngenta Limited, priority 2000, published 2009)

Biological target: T1, Arabidopsis HPPD (Arabidopsis thaliana, UniProt P93836)
T1 construct: made in house; host or cells: E. coli BL21 (DE3) codon+ RP
T1 sequence (P93836 1-445): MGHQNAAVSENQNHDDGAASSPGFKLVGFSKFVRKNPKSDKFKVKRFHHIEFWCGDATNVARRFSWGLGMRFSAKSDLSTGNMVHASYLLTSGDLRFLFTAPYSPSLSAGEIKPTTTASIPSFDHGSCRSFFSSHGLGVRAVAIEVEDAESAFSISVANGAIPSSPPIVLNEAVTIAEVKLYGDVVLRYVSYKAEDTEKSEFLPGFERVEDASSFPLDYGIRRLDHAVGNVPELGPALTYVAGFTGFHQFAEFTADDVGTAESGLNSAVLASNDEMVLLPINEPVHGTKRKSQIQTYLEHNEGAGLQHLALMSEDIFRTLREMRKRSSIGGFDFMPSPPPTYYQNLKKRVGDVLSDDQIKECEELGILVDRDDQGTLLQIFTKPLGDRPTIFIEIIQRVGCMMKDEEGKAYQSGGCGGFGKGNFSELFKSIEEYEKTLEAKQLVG
Assay: Rate of binding (kon) by radiolabelled inhibitor and separation of bound from free
Source text: Alternatively estimates of kon values can be determined more directly by mixing HPPD with radio or otherwise labelled herbicide inhibitor and monitoring the progress of the binding reaction, optionally by rapidly isolating the enzyme inhibitor complex and/or by any one of a number of methods (for example fluorimetry, EPR, NMR, radiodetection etc). For example, the reaction with HPPD may be started by addition of radiolabelled herbicide, allowed to proceed for a series of different times and rapidly quenched by addition and mixing with a large excess of unlabelled inhibitor. In this case the extent of binding at different times may, for example, be monitored by using ultrafiltration, binding to filters or gel filtration to separate radiolabel-bound to HPPD from unbound label which fractions can then each be quantitated by scintillation counting. […]
The measurements of koff are based on physical rather than assay-based measurements. Similarly, kon rates can also be measured by a direct physical method, in this case the use of radiolabelled inhibitor and physical separation of protein bound from free inhibitor. […] The rates of binding determined on the basis of measurement of the amount of radiolabelled inhibitor bound after various times of reaction are found to correlate very well with measurements based upon assay-based measurements of the rate of decline of enzyme activity. […]

| Compound | rate constant of subsequent much slower binding to the remaining site (25% v/v glycerol) [M⁻¹ s⁻¹] | kon (without 25% v/v glycerol) [M⁻¹ s⁻¹] |
| --- | --- | --- |
| CS(=O)(=O)c1ccc(C(=O)C2C(=O)CCCC2=O)c([N+](=O)[O-])c1 [Structure I, 2-(Nitro-4-methanesulphonylbenzoyl)-cyclohexane-1,3-dione, reference compound] | ~1000 |  |
| Cc1nc(C(F)(F)F)ccc1C(=O)C1C(=O)C2CCC(C2)C1=O (centres unmarked) [Structure II] |  | 800000 |
